By EC50 is commonly meant the concentration that produces a half-maximal response.

One experiment concerns HIV-IIIb. Kind of experiment: Test A: Antiviral Assay in MT4 Cells. Type of experiment: cell-based. The settings on record: Human immunodeficiency virus 1, IIIB, MT4, 120 h. The method, boiled down: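 Read-out: CellTiter-Glo chemiluminescence after 5-day incubation at 37 °C. Compounds tested as 3-fold serial dilutions (10 concentrations, quadruplicate) in RPMI 1640 with 10% FBS, on MT-4 cells pre-infected at 37 °C with HIV-IIIb at 0.004 m.o.i.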
`Cc1cc2nc(-c3cncc(N4CCN(C(C)C)CC4)n3)sc2c(-c2ccc(Cl)cc2)c1[C@H](OC(C)(C)C)C(=O)O` [Compound 480, (S)-2-tert-butoxy-2-(7-(4-chlorophenyl)-2-(6-(4-isopropylpiperazin-1-yl)pyrazin-2-yl)-5-methylbenzo[d]thiazol-6-yl)acetic acid] showed an EC50 of 0.002 µM.
On the same count and under the same terms, in the case of `Cc1cc2nc(-c3ccnc(-c4ncc5c(n4)c(C)nn5C)c3)sc2c(-c2ccc(Cl)cc2)c1[C@H](OC(C)(C)C)C(=O)O` [Compound 488, (S)-2-tert-butoxy-2-(7-(4-chlorophenyl)-2-(2-(1,3-dimethyl-1H-pyrazolo[4,3-d]pyrimidin-5-yl)pyridin-4-yl)-5-methylbenzo[d]thiazol-6-yl)acetic acid] it was 0.011 µM.
In the case of `Cc1cc2nc(-c3cnc(C)c(-c4ccc5c(cnn5C)n4)c3)sc2c(-c2ccc(Cl)cc2)c1[C@H](OC(C)(C)C)C(=O)O` [Compound 490, (S)-2-tert-butoxy-2-(7-(4-chlorophenyl)-5-methyl-2-(6-methyl-5-(1-methyl-1H-pyrazolo[4,3-b]pyridin-5-yl)pyridin-3-yl)benzo[d]thiazol-6-yl)acetic acid], the EC50 was determined as 0.003 µM.

Still in this experiment, the particulars now being: Human immunodeficiency virus 1, IIIB, MT4, 120 h, Table 2; MT-4 cells infected with HIV-IIIb, 5 days of incubation, CellTiter-Glo; read-out: EC50.
For `Cc1cc2nc(-c3ccnc(N4CC[C@H](N(C)C)C4)n3)sc2c(-c2ccc(Cl)cc2)c1[C@H](OC(C)(C)C)C(=O)O` [Compound 478, (S)-2-tert-butoxy-2-(7-(4-chlorophenyl)-2-(2-((S)-3-(dimethylamino)pyrrolidin-1-yl)pyrimidin-4-yl)-5-methylbenzo[d]thiazol-6-yl)acetic acid], the concentration giving a half-maximal response (EC50) was determined as 0.004 µM.
With `Cc1cc2nc(-c3ccnc(N4CC[C@@H](N(C)C)C4)n3)sc2c(-c2ccc(Cl)cc2)c1[C@H](OC(C)(C)C)C(=O)O` [Compound 479, (S)-2-tert-butoxy-2-(7-(4-chlorophenyl)-2-(2-((R)-3-(dimethylamino)pyrrolidin-1-yl)pyrimidin-4-yl)-5-methylbenzo[d]thiazol-6-yl)acetic acid], the concentration for a half-maximal effect (EC50) was determined as 0.004 µM.
As to `Cc1cc2nc(-c3cncc(N4CCN(C(C)C)CC4)c3)sc2c(-c2ccc(Cl)cc2)c1[C@H](OC(C)(C)C)C(=O)O` [Compound 481, (S)-2-tert-butoxy-2-(7-(4-chlorophenyl)-2-(5-(4-isopropylpiperazin-1-yl)pyridin-3-yl)-5-methylbenzo[d]thiazol-6-yl)acetic acid], the EC50 was found to be 0.017 µM.
Still for that read-out and setting: in the case of `Cc1cc2nc(-c3cncc(N4CCN(C5COC5)CC4)c3)sc2c(-c2ccc(Cl)cc2)c1[C@H](OC(C)(C)C)C(=O)O` [Compound 482, (S)-2-tert-butoxy-2-(7-(4-chlorophenyl)-5-methyl-2-(5-(4-(oxetan-3-yl)piperazin-1-yl)pyridin-3-yl)benzo[d]thiazol-6-yl)acetic acid] it was 0.014 µM; in that of `Cc1cc2nc(-c3cccc(N4CCN(C(C)C)CC4)c3)sc2c(-c2ccc(Cl)cc2)c1[C@H](OC(C)(C)C)C(=O)O` [Compound 483, (S)-2-tert-butoxy-2-(7-(4-chlorophenyl)-2-(3-(4-isopropylpiperazin-1-yl)phenyl)-5-methylbenzo[d]thiazol-6-yl)acetic acid], 0.037 µM; in that of `Cc1cc2nc(-c3csc(N4CCN(C(C)C)CC4)n3)sc2c(-c2ccc(Cl)cc2)c1[C@H](OC(C)(C)C)C(=O)O` [Compound 484, (S)-2-tert-butoxy-2-(7-(4-chlorophenyl)-2-(2-(4-isopropylpiperazin-1-yl)thiazol-4-yl)-5-methylbenzo[d]thiazol-6-yl)acetic acid], 0.009 µM.
For `Cc1cc2nc(-c3cnc(N4CCN(C(C)C)CC4)s3)sc2c(-c2ccc(Cl)cc2)c1[C@H](OC(C)(C)C)C(=O)O` [Compound 485, (S)-2-tert-butoxy-2-(7-(4-chlorophenyl)-2-(2-(4-isopropylpiperazin-1-yl)thiazol-5-yl)-5-methylbenzo[d]thiazol-6-yl)acetic acid], the EC50 came out at 0.015 µM.
For the compound `Cc1cc2nc(-c3ncc(N4CCN(C(C)C)CC4)s3)sc2c(-c2ccc(Cl)cc2)c1[C@H](OC(C)(C)C)C(=O)O` [Compound 486, (S)-2-tert-butoxy-2-(7-(4-chlorophenyl)-2-(5-(4-isopropylpiperazin-1-yl)thiazol-2-yl)-5-methylbenzo[d]thiazol-6-yl)acetic acid], the EC50 turned out to be 0.031 µM.
The same measure, in the same setting: in the case of `Cc1cc2nc(-c3ncc4c(n3)c(C)nn4C)sc2c(-c2ccc(Cl)cc2)c1[C@H](OC(C)(C)C)C(=O)O` [Compound 487, (S)-2-tert-butoxy-2-(7-(4-chlorophenyl)-2-(1,3-dimethyl-1H-pyrazolo[4,3-d]pyrimidin-5-yl)-5-methylbenzo[d]thiazol-6-yl)acetic acid] it was 0.012 µM.
Still for that read-out and setting: the figure for `Cc1cc2nc(-c3ccnc(-c4ccc5nc(N)ccc5c4)n3)sc2c(-c2ccc(Cl)cc2)c1[C@H](OC(C)(C)C)C(=O)O` [Compound 489, (S)-2-(2-(2-(2-aminoquinolin-6-yl)pyrimidin-4-yl)-7-(4-chlorophenyl)-5-methylbenzo[d]thiazol-6-yl)-2-tert-butoxyacetic acid] is 0.02 µM.
`Cc1cc2nc(N3CCN(C)[C@@H](c4ccc5c(cnn5C)c4)C3)sc2c(-c2ccc(Cl)cc2)c1[C@H](OC(C)(C)C)C(=O)O` [Compound 491, (S)-2-tert-butoxy-2-(7-(4-chlorophenyl)-5-methyl-2-((S)-4-methyl-3-(1-methyl-1H-indazol-5-yl)piperazin-1-yl)benzo[d]thiazol-6-yl)acetic acid]: the EC50 stood at 0.051 µM.
On to `Cc1cc2nc(N3CCN(C)[C@H](c4ccc5c(cnn5C)c4)C3)sc2c(-c2ccc(Cl)cc2)c1[C@H](OC(C)(C)C)C(=O)O` [Compound 492, (S)-2-tert-butoxy-2-(7-(4-chlorophenyl)-5-methyl-2-((R)-4-methyl-3-(1-methyl-1H-indazol-5-yl)piperazin-1-yl)benzo[d]thiazol-6-yl)acetic acid], for which the concentration giving a half-maximal response (EC50) turned out to be 0.003 µM.
On to `Cc1cc2nc(-c3ccc4c(n3)c(N3CCN(C)CC3)nn4C)sc2c(-c2ccc(Cl)cc2)c1[C@H](OC(C)(C)C)C(=O)O` [Compound 495, (S)-2-tert-butoxy-2-(7-(4-chlorophenyl)-5-methyl-2-(1-methyl-3-(4-methylpiperazin-1-yl)-1H-pyrazolo[4,3-b]pyridin-5-yl)benzo[d]thiazol-6-yl)acetic acid], for which the half-maximal effective concentration (EC50) was determined as 0.004 µM.
`Cc1cc2nc(-c3ccc4c(n3)c(-c3cccnc3)nn4C)sc2c(-c2ccc(Cl)cc2)c1[C@H](OC(C)(C)C)C(=O)O` [Compound 496, (S)-2-tert-butoxy-2-(7-(4-chlorophenyl)-5-methyl-2-(1-methyl-3-(pyridin-3-yl)-1H-pyrazolo[4,3-b]pyridin-5-yl)benzo[d]thiazol-6-yl)acetic acid]: the EC50 is 0.005 µM.
For `Cc1cc2nc(-c3ccc4c(c3)c(-c3cncnc3)nn4C)sc2c(-c2ccc(Cl)cc2)c1[C@H](OC(C)(C)C)C(=O)O` [Compound 497, (S)-2-tert-butoxy-2-(7-(4-chlorophenyl)-5-methyl-2-(1-methyl-3-(pyrimidin-5-yl)-1H-indazol-5-yl)benzo[d]thiazol-6-yl)acetic acid], the EC50 came to 0.004 µM.

Staying with this experiment, now noted: Table 2; MT-4 cells infected with HIV-IIIb, 5 days of incubation, CellTiter-Glo; read-out: EC50.
In the case of `Cc1cc2nc(-c3ccc4c(c3)c(N3CCN(C(C)C(F)(F)F)CC3)nn4C)sc2c(-c2ccc(Cl)cc2)c1[C@H](OC(C)(C)C)C(=O)O` (stereo partly drawn) [Compound 493, (2S)-2-tert-butoxy-2-(7-(4-chlorophenyl)-5-methyl-2-(1-methyl-3-(4-((2R/2S)-1,1,1-trifluoropropan-2-yl)piperazin-1-yl)-1H-indazol-5-yl)benzo[d]thiazol-6-yl)acetic acid], the EC50 amounted to 0.051 µM.
